Assay results: PMC7262913, “Substrate recognition by a bifunctional GH30‐7 xylanase B from Talaromyces cellulolyticus” (FEBS Open Bio, 2020)

Target: T1, TcXyn30B (Talaromyces pinophilus, UniProt A0A510NXC4)
T1 construct: gene TCE0_018f06110; no His tag; vector residues AYVEF at N-terminus (numbered 18-22); secreted from Pichia pastoris GS115, N-glycosylated, 62182 Da; one molecule per asymmetric unit
T1 sequence (A0A510NXC4 23-474): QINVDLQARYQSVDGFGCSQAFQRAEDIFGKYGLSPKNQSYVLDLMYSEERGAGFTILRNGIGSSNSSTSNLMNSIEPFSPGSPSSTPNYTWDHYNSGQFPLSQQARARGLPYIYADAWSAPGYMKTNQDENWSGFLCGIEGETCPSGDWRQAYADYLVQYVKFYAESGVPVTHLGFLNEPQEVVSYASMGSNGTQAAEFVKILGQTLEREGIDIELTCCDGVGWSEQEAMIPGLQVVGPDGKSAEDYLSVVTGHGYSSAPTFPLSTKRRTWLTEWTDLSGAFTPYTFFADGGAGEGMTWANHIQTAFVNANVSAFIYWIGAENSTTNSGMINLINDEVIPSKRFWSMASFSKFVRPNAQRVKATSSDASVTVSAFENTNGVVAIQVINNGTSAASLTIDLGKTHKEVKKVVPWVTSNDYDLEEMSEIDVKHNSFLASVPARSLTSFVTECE
Test: X-ray crystallography (co-crystal, […] Å)
Format: binding
Conditions: co-crystallised with aldouronic acid mixture (Megazyme); pH 7.3, MgCl2; subsites -1, -2a and -2b of active site

SMILES: CO[C@H]1[C@H](O)[C@@H](O)[C@@H](O[C@H]2[C@H](O[C@@H]3COC(O)[C@H](O)[C@H]3O)OC[C@@H](O)[C@@H]2O)O[C@@H]1C(=O)O (stereo partly drawn) [U^4m2X, 2^2‐(4‐O‐methyl‐α‐D‐glucuronyl)‐xylobiose]
- X-ray crystallography (co-crystal, 1.65 Å): A clear density map for U^4m2X is observed in the active cleft
